According to patent US20090275557A1, “Novel Composition for Treatment of Diseases Related to Activated Lymphocytes” (Immune Control, Inc., priority 2008, published 2009):

Test system: bovine type 2 collagen immunized rats
Experiment: Collagen-induced arthritis assay, IP injection protocol, ankle diameter
Format: in vivo, rat
Details: IP injection 10 mg/kg once per day, study days 1-3; observed on study days 2-4
Description: Female Lewis rats (CR) weighing between 125-200 g were immunized with bovine type 2 collagen, 2 mg/ml in a 1:1 solution of 0.01 N acetic acid and Freund's incomplete adjuvant (“FIA”). A 0.1 ml portion of the collagen solution was injected id (intradermally) at three sites on the rat. Rats were immunized with the collagen solution on days 1 and 6 of the study. […] On day 9 (study day “0”), baseline ankle diameters were measured. On days 10-15 (study days 1-6), the rats were then treated, via oral gavage, with either 1, 5, or 25 mg/kg of one of ICI-1259 or ICI-1260, prepared as described below. Ankle diameter measurements were measured on each of days 10-16.
Compounds ICI-1259, ICI-1260, ICI-1505, and ICI-1506 were administered via IP injection to treat collagent-induced arthritis in a variation of the experiments described above. Under the protocol of the IP injection experiments, animal were immunized with Bovine Type 2 collagen as previously described. […] On day 9 (study day “0”), baseline ankle diameters were measured. On days 10-12 (study days 1-3), the rats were then treated once per day, via IP injection, with one of ICI-1259, ICI-1260, ICI-1505, or ICI-1506 at 10 mg/kg. Ankle diameter in the immunized rodents was measured on each of days 10-13 as well as on day 14. […] See FIG. 18 (ICI-1259, ICI-1260, and ICI-1505) and FIG. 19 (ICI-1506).
In a separate study, using the IP injection protocol described above, ICI-1259 and 1260 were each dosed at 2 mg/kg and 0.4 mg/kg.

CN(C)CCCN1CCC(CCCN2c3ccccc3Sc3ccc(C(F)(F)F)cc32)CC1 [ICI-1505, N,N-dimethyl-3-(4-(3-(2-(trifluoromethyl)-10H-phenothiazin-10-yl)propyl)piperidin-1-yl)propan-1-amine]
reduction in ankle swelling (ankle diameter): statistically significant results were observed

FC(F)(F)c1ccc2c(c1)N(CCCC1CCN(CCCN3CCCCC3)CC1)c1ccccc1S2 [ICI-1506, 10-(3-(1-(3-(piperidin-1-yl)propyl)piperidin-4-yl)propyl)-2-(trifluoromethyl)-10H-phenothiazine]
reduction in ankle swelling (ankle diameter): statistically significant results were observed
